In patent US5767124A, “Polymorphic forms of a growth hormone secretagogue” (priority 1996, dated 1998):
“Also recorded” adds a separate entry of the source. Read-outs that look alike come from different tables or passages of the source.

Legend:
Type in all cases: physicochemical
[1] = Hygroscopicity: storage of solid forms in constant relative humidity chambers; settings: for % Gain/Loss / change of sample on storage at high humidity (footnote): room temperature; for change of sample on storage at high humidity (footnote): Form II 48 hrs at 65-100% RH, Form I 96 hrs at 88 and 100% RH
Procedure: (§1) The total volatiles content (as established by TGA analysis) of solid samples of Forms I, II, III and IV upon exposure to various controlled humidities is tabulated below.
Hygroscopicity was assessed by storing the solid compound in constant relative humidity chambers. […] The results are tabulated below in Tables 1 and 2.

[2] = Total volatiles / water content (TGA) and water of hydration; settings: for moles of water per mole of compound: appears to be a hygroscopic hydrate
From the text: as §1

[3] = Bulk density; settings: compared with other forms
[4] = Solubility of Forms I and II in water, buffer, ethanol/water and isopropanol
Procedure: The solubility of Form I in distilled water at room temperature is >100 mg/mL. The aqueous solubility (RT) of Form II in buffered solutions (pH 4-9) is >100 mg/mL. The solubility of Form I in ethanol/water mixtures is shown below: […]

[5] = Thermal stability of neat compound (solid state, HPLC); settings: for thermal stability in words: neat solid; for remaining at 168 h: 1 Wk; for remaining at 336 h: 2 Wks; for remaining at 672 h: 4 Wks; for remaining at 4032 h: 24 Wks; for remaining at 1344 h: 8 Wks; for remaining at 1008 h: 6 Wks; for remaining at 1008 h / remaining at 2856 h: read-out: % Inital; for remaining at 2856 h: 17 Wks
Procedure: The solid state stability of neat compound was assessed by storage of the drug in glass screw-cap vials in the dark. Samples were assayed by HPLC and the parent compound was quantitatively analyzed. The isocratic method that was employed is outlined below:
Column: Beckman Ultrasphere ODS (250×4.6 mm, 5 μ)
Mobile Phase: 0.1% TEA, pH 4.0 with H3 PO4 :Acetonitrile (65:35)
Detection Wavelength: 228 nm
Column Temperature: Ambient
Injection Volume: 20 μL of N-[I(R)-[(1,2-dihydro-1-methanesulfonyl-spiro[3H-indole-3,4'-piperdin]-1'- yl)carbonyl]-2-(phenylmethyl-oxy)ethyl]-2-amino-2-methylpropanamide methanesulfonate (50 μg/mL)
The results shown below for Forms I and II were calculated as weight percent.

[6] = Solubility of CBZ-sulfonamide 1 in toluene/n-PrOH mixtures by HPLC assay; settings: 0% toluene in n-PrOH
Procedure: The temperature of both the head and pot rose from 94° C. to 98° C. during the solvent switch. Toluene and n-PrOH form an azeotrope boiling at 97.2° C. composed of 47.5% toluene and 52.5% n-PrOH. The mixture was allowed to cool gradually to 20° C. over 3h and aged for 12 h. […] The solubility of the sulfonamide in various mixtures of toluene and n-PrOH has been determined by HPLC assay: […]

[7] = 76% RH, 48 hrs, footnote a = sample becomes a gummy semisolid
[8] = 100% RH, 48 hrs, footnotes a = gummy semisolid, b = converts to Form IV upon exposure to ambient humidity
[9] = 65% RH, 48 hrs, footnote a = sample becomes a gummy semisolid
[10] = solid state, 40 °C, in the dark, read-out: % Initial
[11] = solid state, 60 °C, in the dark, read-out: % Initial
[12] = solid state, 80 °C, in the dark, read-out: % Initial
[13] = solid state, 40 °C, in the dark
[14] = solid state, 60 °C, in the dark
[15] = solid state, 80 °C, in the dark

Structure (SMILES)	% Gain/Loss ([1]; 0% RH, 48 hrs)	% Gain/Loss ([1]; 11% RH, 48 hrs)	% Gain/Loss ([1]; 33% RH, 48 hrs)	% Gain/Loss ([1]; 47% RH, 48 hrs)	% Gain/Loss [1, 7]	% Gain/Loss [1, 8]	water content (total volatiles by TGA) [2]	moles of water per mole of compound [2]	% Gain/Loss [1, 9]	solubility in isopropanol [4]	thermal stability in words [5]	hygroscopicity in words [1]	change of sample on storage at high humidity (footnote) [1]	further results
CC(C)(N)C(=O)N[C@H](COCc1ccccc1)C(=O)N1CCC2(CC1)CN(S(C)(=O)=O)c1ccccc12 [Form II, N-[1(R)-[(1,2-dihydro-1-methanesulfonylspiro[3H-indole-3,4'-piperdin]-1'-yl)carbonyl]-2-(phenylmethyloxy)ethyl]-2-amino-2-methylpropanamide methanesulfonate]	+0.08%	+0.02%	+0.33%	+0.39%	> 10.0%	> 10.0%	0.56 wt %	–	> 10.0%	12.3 mg/mL	good thermal stability	hygroscopic and exhibits a large increase in moisture starting at 65% RH	Sample becomes a gummy semisolid; also recorded: Converts to Form IV upon exposure to ambient humidity	solubility ([4]; buffer ph 4-9, RT, pH 4-9, read-out: aqueous solubility in buffered solutions): > 100 mg/mL; solubility in IPA ([4]; crystalline material from EtOAc-EtOH): 12 mg/mL; % Initial ([5]; 80 °C, 12 Wks, in the dark, 120960 min): 100.4%; remaining at 168 h [5, 10]: 99.7%; remaining at 336 h [5, 10]: 101%; remaining at 672 h [5, 10]: 99.5%; remaining at 4032 h [5, 10]: 100%; remaining at 168 h [5, 11]: 99.4%; remaining at 336 h [5, 11]: 99.6%; remaining at 672 h [5, 11]: 100%; remaining at 1344 h [5, 11]: 100%; remaining at 2016 h ([5]; solid state, 60 °C, 12 Wks, in the dark, read-out: % Initial): 101%; remaining at 4032 h [5, 11]: 101%; remaining at 168 h [5, 12]: 99.2%; remaining at 336 h [5, 12]: 100%; remaining at 672 h [5, 12]: 99.2%; remaining at 1344 h [5, 12]: 99.8%
CS(=O)(=O)N1CC2(CCN(C(=O)OCc3ccccc3)CC2)c2ccccc21 [Form 1, CBZ-Spiroindoline-methanesulfonamide]	–	–	–	–	–	–	–	–	–	–	–	–	–	solubility of 1 [6]: 2.36 mg/mL
CC(C)(N)C(=O)N[C@H](COCc1ccccc1)C(=O)N1CCC2(CC1)CN(S(C)(=O)=O)c1ccccc12 [Form I, N-[1(R)-[(1,2-dihydro-1-methanesulfonylspiro[3H-indole-3,4'-piperdin]-1'-yl)carbonyl]-2-(phenylmethyloxy)ethyl]-2-amino-2-methylpropanamide methanesulfonate]	-0.02%	-0.05%	–	+0.21%	+0.12%	> 12.0%	0.79 wt %	–	+0.37%	4.6 mg/niL	good thermal stability	non-hygroscopic; also recorded: the wet crystals are very hygroscopic; also recorded: No substantial moisture increase is exhibited by Form I except when stored above 76% RH	deliquescent material	% Gain/Loss ([1]; 7% RH, 96 hrs): +0.4%; % Gain/Loss ([1]; 22% RH, 96 hrs): +0.3%; % Gain/Loss ([1]; 47% RH, 96 hrs): +0.5%; % Gain/Loss ([1]; 68% RH, 96 hrs): +0.6%; % Gain/Loss ([1]; 88% RH, 96 hrs, * = deliquescent material): +12.9%; % Gain/Loss ([1]; 100% RH, 96 hrs, * = deliquescent material): +23.9%; water content in words [2]: relatively anhydrous; solubility ([4]; distilled water, water, room temperature, read-out: solubility in distilled water): > 100 mg/mL; solubility ([4]; ethanol/water 25/75, organic solvent or mixture, % Ethanol/H2O 25/75, read-out: Solubility in ethanol/water): > 100 mg/mL; solubility ([4]; ethanol/water 50/50, organic solvent or mixture, % Ethanol/H2O 50/50, read-out: Solubility in ethanol/water): > 100 mg/mL; solubility ([4]; ethanol/water 75/25, organic solvent or mixture, % Ethanol/H2O 75/25, read-out: Solubility in ethanol/water): > 90 mg/mL; solubility ([4]; organic solvent or mixture, 100% ethanol, read-out: Solubility in ethanol): > 90 mg/mL; remaining at 1008 h [5, 13]: 100%; remaining at 2856 h [5, 13]: 98.7%; remaining at 1008 h [5, 14]: 101%; remaining at 2856 h [5, 14]: 101%; remaining at 1008 h [5, 15]: 101%; remaining at 2856 h [5, 15]: 99.4%

Continued, in another order:

% Gain/Loss ([1]; 0% RH, 48 hrs)	% Gain/Loss ([1]; 11% RH, 48 hrs)	% Gain/Loss ([1]; 33% RH, 48 hrs)	% Gain/Loss ([1]; 47% RH, 48 hrs)	% Gain/Loss [1, 7]	% Gain/Loss [1, 8]	water content (total volatiles by TGA) [2]	moles of water per mole of compound [2]	% Gain/Loss [1, 9]	solubility in isopropanol [4]	thermal stability in words [5]	Structure (SMILES)	hygroscopicity in words [1]	change of sample on storage at high humidity (footnote) [1]	further results
-7.8%	-4.9%	+0.3%	+0.7%	+1.5%	+5.3%	9.5-10.0 wt %	3.5 moles of water per mole	–	–	–	CC(C)(N)C(=O)N[C@H](COCc1ccccc1)C(=O)N1CCC2(CC1)CN(S(C)(=O)=O)c1ccccc12 [Form IV, N-[1(R)-[(1,2-dihydro-1-methanesulfonylspiro[3H-indole-3,4'-piperdin]-1'-yl)carbonyl]-2-(phenylmethyloxy)ethyl]-2-amino-2-methylpropanamide methanesulfonate]	–	–	% Gain/Loss ([1]; 66% RH, 48 hrs): +1.4%; bulk density [3]: higher bulk density than other forms
–	-0.15%	+2.23%	+3.99%	+3.76%	–	4.5-5.0 wt %	–	–	–	–	CC(C)(N)C(=O)N[C@H](COCc1ccccc1)C(=O)N1CCC2(CC1)CN(S(C)(=O)=O)c1ccccc12 [Form III, N-[1(R)-[(1,2-dihydro-1-methanesulfonylspiro[3H-indole-3,4'-piperdin]-1'-yl)carbonyl]-2-(phenylmethyloxy)ethyl]-2-amino-2-methylpropanamide methanesulfonate]	shows an increase in moisture after 48-hr storage at 33% RH	–	–
–	–	–	–	–	–	–	1 moles of water per mole	–	–	–	CC(C)(N)C(=O)N[C@H](COCc1ccccc1)C(=O)N1CCC2(CC1)CN(S(C)(=O)=O)c1ccccc12 [Form V, N-[1(R)-[(1,2-dihydro-1-methanesulfonylspiro[3H-indole-3,4'-piperdin]-1'-yl)carbonyl]-2-(phenylmethyloxy)ethyl]-2-amino-2-methylpropanamide methanesulfonate]	hygroscopic	–	–
